{"source": "patent US20180110781A1", "about": "“SYSTEM AND METHOD FOR DIAGNOSIS AND TREATMENT OF NEUROPSYCHIATRIC DISORDERS” (Research Foundation For Mental Hygiene, Inc., priority 2016, published 2018)", "key": {"[1]": {"tested_on": "outpatients with schizophrenia or schizoaffective disorder", "assay": "Six-week trial of Kuvan: UCSD Performance Based Skills Assessment-Brief (UPSA-B)", "type": "in vivo, human", "description": "(§1) A six-week, rater-blind, multivitamin-controlled trial of Kuvan® was performed at the Lieber Schizophrenia Research Clinic, New York State Psychiatric Institute. Clinically stable outpatients with schizophrenia or schizoaffective disorder were randomly assigned to receive Kuvan® (20mg/kg/day) or a single, daily multivitamin tablet, added to their medication regimen. Subjects were also genotyped for the GCH1 gene promotor polymorphism (r510137071). The primary clinical efficacy outcome was change in total Positive and Negative Symptom Scale (PANSS) scores, measured at baseline, then weeks 2, 4 and 6. Improvements in function was measured by the UPSA-B, at baseline, then week 6. The primary cognitive outcome was measured by the MCCB, measured at baseline and week 6. A priori defined secondary outcomes were PANSS factor scores and MCCB domain scores. Data were analyzed using a mixed effects repeated measures model (Stata v14.1, College Station, TX). Models included fixed effects of treatment, time (week) and the treatment by time interaction, with random subject and time effects. Genotype (GCH1 A allele versus GG genotype) was also included as a fixed effect in additional models. […] All hypothesis tests were two-sided, with significance determined at unadjusted p<0.05."}, "[2]": {"tested_on": "outpatients with schizophrenia or schizoaffective disorder", "assay": "Six-week rater-blind multivitamin-controlled trial of Kuvan: Positive and Negative Symptom Scale (PANSS)", "type": "in vivo, human", "description": "as §1"}, "[3]": {"tested_on": "outpatients with schizophrenia or schizoaffective disorder", "assay": "Six-week trial of Kuvan: MATRICS Consensus Cognitive Battery (MCCB)", "type": "in vivo, human", "description": "as §1"}, "[4]": {"tested_on": "outpatients with schizophrenia or schizoaffective disorder", "design": "species or system human", "details": "in vivo", "description": "A six-week, rater-blind, multivitamin-controlled trial of Kuvan® was performed at the Lieber Schizophrenia Research Clinic, New York State Psychiatric Institute. Clinically stable outpatients with schizophrenia or schizoaffective disorder were randomly assigned to receive Kuvan® (20mg/kg/day) or a single, daily multivitamin tablet, added to their medication regimen. Subjects were also genotyped for the GCH1 gene promotor polymorphism (r510137071). The primary clinical efficacy outcome was change in total Positive and Negative Symptom Scale (PANSS) scores, measured at baseline, then weeks 2, 4 and 6. Improvements in function was measured by the UPSA-B, at baseline, then week 6. The primary cognitive outcome was measured by the MCCB, measured at baseline and week 6. A priori defined secondary outcomes were PANSS factor scores and MCCB domain scores.\nNo AEs were considered by the investigators to be serious. 75% (9/12) of subjects randomized to the multivitamin group and 61.5% (8/13) of those treated with Kuvan® experienced an AE, which was not statistically different (p=0.47). There was no statistically significant difference in the average number of AEs experienced by each subject (Kuvan=2.44±1.13; Multivitamin=3.0±2.07, p=0.49), or the degree to which each AEs was considered related to the study medication (Kuvan 18/24 total events; multivitamin 13/22 total events, p=0.35). Additionally, two subjects prematurely discontinued from the study based upon the predefined stopping rules, both of whom had been randomized to the multivitamin group."}, "[5]": {"details": "did not reach two-tailed statistical significance"}}, "note": "“Also recorded” adds a separate entry of the source. Structures can show the parent of a compound that is named as a salt.", "data": [{"molecule": "C[C@H](O)[C@H](O)[C@H]1CNc2nc(N)[nH]c(=O)c2N1", "note": "[Kuvan®, saproterin dihydrochloride]", "values": [{"measurement": "UPSA-B Financial subscale, Kuvan group versus multivitamin group", "setting": "[1]; baseline to week 6, p<0.001", "value": "performance improvement"}, {"measurement": "treatment*time*genotype interaction on total UPSA-B score", "setting": "[1]; p=0.096", "value": "trend towards significance"}, {"measurement": "unadjusted UPSA-B Financial Subscale scores, change between baseline and study end", "setting": "[1]; paired sample t-tests, Kuvan p=0.039, multivitamin p=0.025", "value": "significant increase"}, {"measurement": "UPSA-B score, treatment*time interaction", "setting": "[1]; primary functional outcome", "value": "did not show a significant treatment*time interaction"}, {"measurement": "change in total PANSS score, treatment effect", "setting": "[2]; Kuvan 20mg/kg/day vs daily multivitamin, baseline to week 6, treatment*time p>0.05", "value": "no treatment effect"}, {"measurement": "PANSS factor scores (Positive, Negative and General Psychopathology), treatment*time effect", "setting": "[2]; Kuvan vs multivitamin, six weeks", "value": "no significant treatment*time effect"}, {"measurement": "genotype effect (treatment*time*genotype) on total PANSS score", "setting": "[2]; p<0.1 for each visit compared to baseline", "value": "A genotype effect was not observed"}, {"measurement": "MCCB composite score, final mean", "setting": "[3]; GCH1 A allele patients, study end (week 6), Kuvan n=5 p=0.044, multivitamin n=8 p=0.36 vs baseline", "value": "34.4±11.89"}, {"measurement": "MCCB composite score, baseline mean", "setting": "[3]; GCH1 A allele patients, Kuvan n=5, multivitamin n=8", "value": "28.4±8.62"}, {"measurement": "interaction of treatment, time and genotype on the MCCB Composite Score", "setting": "[3]; GCH1 A allele versus GG, p=0.002, dihydrochloride", "value": "significant effect of GCH1 genotype by treatment group; also recorded: significant interaction"}, {"measurement": "A allele carriers exhibiting improvement on the MCCB composite T score", "setting": "[3]; baseline to study end, Kuvan 4/5, multivitamin 2/8", "value": 80, "unit": "%"}, {"measurement": "MCCB Social Cognition domain, Kuvan group versus multivitamin group", "setting": "[3]; baseline to week 6, p=0.085", "value": "trend toward significance"}, {"measurement": "MCCB social cognition domain score, change from baseline", "setting": "[3]; [5]", "value": "increased from baseline"}, {"measurement": "MCCB working memory domain score, change from baseline", "setting": "[3]; [5]", "value": "increased from baseline"}, {"measurement": "MCCB Working Memory domain, Kuvan group versus multivitamin group", "setting": "[3]; n=13 vs n=12 completers, baseline to week 6, p=0.05", "value": "performance improvement"}, {"measurement": "cognitive change from baseline (MCCB composite) in GCH1 A allele patients", "setting": "[3]; paired t-test p=0.044", "value": "significant cognitive improvement"}, {"measurement": "MCCB composite score, treatment*time interaction", "setting": "[3]; primary cognitive outcome, one-tailed trend p=0.0735", "value": "did not show a significant treatment*time interaction"}, {"measurement": "AEs considered related to the study medication", "setting": "[4]; human, 6 weeks", "value": "18/24"}, {"measurement": "average number of AEs experienced by each subject", "setting": "[4]; human, 6 weeks", "value": "2.44±1.13"}, {"measurement": "subjects who experienced an adverse event", "setting": "[4]; human, 6 weeks", "value": 61.5, "unit": "%"}, {"measurement": "severity of adverse events", "setting": "[4]", "value": "generally mild"}]}]}
